Legend:
S. cerevisiae cells = experiment: Resazurin cytotoxicity assay (mitochondrial activity); type: cell-based; settings: for Cell Death (%) / Reduction Percentage (%): 3 h incubation
Text: The resazurin-based model that monitors mitochondrial activity is widely used as an indicator of cell viability, proliferation and cytotoxicity. This method is based on the reduction of resazurin to resorufin by mitochondrial enzymes, as carriers of diaphorase activities, like NADPH-dehydrogenase, which are responsible for the transference of electrons from NADPH^+, H^+ to resazurin. The reduction of resazurin correlates with the number of live bacterial or mammalian cells or fungi. Furthermore, S. cerevisiae is an established model system for eukaryotic organisms. They have conserved cellular processes with high homology to those of humans. They proliferate rapidly and are even used as a model to study the effects of anticancer agents. The use of S. cerevisiae in resazurin redox testing is a good alternative to conventional cell viability testing techniques.
The assay is based on the ability of living cells to reduce blue resazurin (7-hydroxy-3H-phenoxazin-3-one 10-oxide) to pink resorufin (7-hydroxy-3H-phenoxazin-3-one) which is measurable by the UV–Vis spectrophotometric or fluorometric method (AlamarBlue^TM). Living cells have active N-methylphenazinium methosulfate that catalyzes the redox reaction in mitochondria of NADH and blue resazurin to produce pink resorufin (Scheme 2). This test is used as an oxidation–reduction indicator in cell viability assays for yeasts and mammalian cells. Reduction of the dye by viable cells decreases the amount of the oxidized form (blue) and, at the same time, increases the amount of its fluorescent intermediate (pink), indicating the degree of cytotoxicity caused by the test material.
S. cerevisiae cells (CCY 21-4-64; Libáň, Czech Republic) were cultured at 28 °C/24h on Saburaud’s dextrose agar with chloramphenicol (Merck, Boston, MA, USA). Subsequently, after 24 h, S. cerevisiae cells were inoculated into sterile liquid YPD medium (Sigma–Aldrich, St. Louis, MO, USA) and cultivation continued at 28 °C/24 h. In the exponential growth phase, cells were centrifuged (8.000 g/3 min), washed twice with sterile physiological solution (0.9% NaCl) and pipetted at a concentration of 1 × 10^9 cells/mL in sterile microtubes (modified procedure from Bitacura, 2018). Sterile physiological solution and copper complexes at concentrations of 1 × 10^−3 M, 3 × 10^−3 M and 5 × 10^−3 M were added to the centrifuged biomass to a total volume of 1 mL and individual samples were cultured in an incubator at 28 °C/3 h. After 3 h, 0.1 mL of ResazurinOX (in vitro toxicology assay kit based on resazurin, Sigma, USA) was added to each sample and the samples were allowed to culture for 2 h. After incubation, the biomass in the samples was separated from the supernatant by centrifugation (8000 g/5 min). The separated solution was diluted in a ratio of 1:1 with physiological solution and subjected to the measurement of UV spectra by the spectrophotometric method according to the recommended protocol of the kit manufacturer (Sigma, USA) on a GENESYS 10S UV–Vis spectrophotometer (Thermo Scientific, USA) in the range of 500–800 nm, using a 1 cm long cuvette.
Cells’ innate metabolic was measured by using an established formula for the reduction percentage. The reduction percentage was calculated using the following formula:(7) Red(%)=ƐOX_600 nm×A570 nm_sample−ƐOX_570 nm×A600 nm_sample/ƐRED_570 nm×A600 nm_C−−ƐRED_600 nm×A570 nm_C−×100

ct-DNA = experiment: DNA binding study by UV–Vis absorption titration; set-up: species or system calf; settings: intraligand band ca. 370 nm on addition of ct-DNA
Method: The absorption spectra of complexes 4a–c (1 × 10^−[…]) were recorded in the presence of increasing amounts of ct-DNA. Intraligand absorption bands with λmax in the region 350 –380 nm were used to monitor the interaction of compounds with ct-DNA. The intraligand absorption value was chosen as λmax = […], so the absorbance of DNA would not interfere. The UV–Vis spectrum affected by DNA addition is shown for complexes 4a in Figure 3, and the UV–Vis spectra of other compounds are provided in the Supplementary Materials (Figure S3-1).
The DNA binding constants (Kb) of the complexes were determined by the Wolfe–Shimer equation (Equation (1)) and the respective plots (Figure 3 and Figure S3-1).
The interactions of prepared complexes 4a–c with ct-DNA have been studied by UV–Vis monitored titration. The ct-DNA solution was prepared by dissolving 6 mg of ct-DNA in 5 mL of citrate buffer (composed of 15 mM sodium citrate and 150 mM sodium chloride mixture solution, at pH = 7.0). The concentration of ct-DNA was then determined by UV–Vis spectroscopy with the molar absorption coefficient of ct-DNA at 260 nm (6600 M^−1cm^−1). The studied complexes were dissolved in DMSO, from which working solutions were prepared by dilution using citrate buffer solution. Increasing concentrations of ct-DNA were then added to a buffer/DMSO solution (<1% DMSO) of the corresponding complex (1 × 10^−[…]).
For the values of the binding strength of the interaction between the complex and the DNA molecule, binding constants Kb were calculated by the ratio of slope to the y intercept in the plots [DNA]/(εA-εf) compared to [DNA], according to the Wolfe–Shimer equation (Equation (1)):(1) [DNA]/(εA−εf)=[DNA]/(εb−εf)+1/Kb(εb−εf) where [DNA] is the concentration of DNA in base pairs, εf is the extinction coefficient of the free complex at the corresponding λmax, εA = Aobsd/[compound] and εb is the extinction coefficient of the complex in the fully bound form.

Structure (SMILES)	Cell Death (%) (S. cerevisiae cells; complex 1 mM)	Reduction Percentage (%) (S. cerevisiae cells; complex 1 mM)	Cell Death (%) (S. cerevisiae cells; complex 3 mM)	Reduction Percentage (%) (S. cerevisiae cells; complex 3 mM)	Cell Death (%) (S. cerevisiae cells; complex 5 mM)	Reduction Percentage (%) (S. cerevisiae cells; complex 5 mM)	decrease of intensity (ΔA/A0), hypochromism (ct-DNA) [%]	cytotoxic activity (cell death) (S. cerevisiae cells; over the tested concentrations 1–5 mM)
COc1ccccc1CN=Cc1ccccc1[O-].COc1ccccc1CN=Cc1ccccc1[O-].[Cl-].[Cl-].[Cu+2].[Cu+2] [Complex 4a, [Cu2 (Sal-2-MeOBn)2 Cl2]]	67.1	32.9	91.6	8.4	96.5	3.5	32	
COc1cccc(CN=Cc2ccccc2[O][Cu][O]c2ccccc2C=NCc2cccc(OC)c2)c1 [Complex 4b, [Cu (Sal-3-MeOBn)2]]	76.0	24.0	92.6	7.4	99.0	1.0	26	
COc1ccc(CN=Cc2ccccc2[O-])cc1.COc1ccc(CN=Cc2ccccc2[O-])cc1.[Cl-].[Cl-].[Cu+2].[Cu+2] [Complex 4c, [Cu2 (Sal-4-MeOBn)2 Cl2]]		5.2	91.5	8.5	97.4	2.6	28	above 94%

From paper PMC12430429, “Synthesis, Structure, DNA/BSA Binding, DNA Cleaving, Cytotoxic and SOD Mimetic Activities of Copper(II) Complexes Derived from Methoxybenzylamine Schiff Base Ligands” (Molecules, 2025)
